# Experimental data taken from ChEMBL document CHEMBL1201862, “PubChem BioAssay data set” (2004).
# The source made the active and inactive calls.
# Columns and labels:
# [1] = molecular target: Heat shock protein HSP 90-alpha (Homo sapiens, UniProt P07900); assay type: functional, organism-based
# [2] = molecular target: Voltage-dependent T-type calcium channel subunit alpha-1H (Homo sapiens, UniProt O95180); assay type: functional;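 also: channel activity triggered by adding a high calcium stimulation buffer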
# Chain of Voltage-dependent T-type calcium channel subunit alpha-1H (O95180 whole entry): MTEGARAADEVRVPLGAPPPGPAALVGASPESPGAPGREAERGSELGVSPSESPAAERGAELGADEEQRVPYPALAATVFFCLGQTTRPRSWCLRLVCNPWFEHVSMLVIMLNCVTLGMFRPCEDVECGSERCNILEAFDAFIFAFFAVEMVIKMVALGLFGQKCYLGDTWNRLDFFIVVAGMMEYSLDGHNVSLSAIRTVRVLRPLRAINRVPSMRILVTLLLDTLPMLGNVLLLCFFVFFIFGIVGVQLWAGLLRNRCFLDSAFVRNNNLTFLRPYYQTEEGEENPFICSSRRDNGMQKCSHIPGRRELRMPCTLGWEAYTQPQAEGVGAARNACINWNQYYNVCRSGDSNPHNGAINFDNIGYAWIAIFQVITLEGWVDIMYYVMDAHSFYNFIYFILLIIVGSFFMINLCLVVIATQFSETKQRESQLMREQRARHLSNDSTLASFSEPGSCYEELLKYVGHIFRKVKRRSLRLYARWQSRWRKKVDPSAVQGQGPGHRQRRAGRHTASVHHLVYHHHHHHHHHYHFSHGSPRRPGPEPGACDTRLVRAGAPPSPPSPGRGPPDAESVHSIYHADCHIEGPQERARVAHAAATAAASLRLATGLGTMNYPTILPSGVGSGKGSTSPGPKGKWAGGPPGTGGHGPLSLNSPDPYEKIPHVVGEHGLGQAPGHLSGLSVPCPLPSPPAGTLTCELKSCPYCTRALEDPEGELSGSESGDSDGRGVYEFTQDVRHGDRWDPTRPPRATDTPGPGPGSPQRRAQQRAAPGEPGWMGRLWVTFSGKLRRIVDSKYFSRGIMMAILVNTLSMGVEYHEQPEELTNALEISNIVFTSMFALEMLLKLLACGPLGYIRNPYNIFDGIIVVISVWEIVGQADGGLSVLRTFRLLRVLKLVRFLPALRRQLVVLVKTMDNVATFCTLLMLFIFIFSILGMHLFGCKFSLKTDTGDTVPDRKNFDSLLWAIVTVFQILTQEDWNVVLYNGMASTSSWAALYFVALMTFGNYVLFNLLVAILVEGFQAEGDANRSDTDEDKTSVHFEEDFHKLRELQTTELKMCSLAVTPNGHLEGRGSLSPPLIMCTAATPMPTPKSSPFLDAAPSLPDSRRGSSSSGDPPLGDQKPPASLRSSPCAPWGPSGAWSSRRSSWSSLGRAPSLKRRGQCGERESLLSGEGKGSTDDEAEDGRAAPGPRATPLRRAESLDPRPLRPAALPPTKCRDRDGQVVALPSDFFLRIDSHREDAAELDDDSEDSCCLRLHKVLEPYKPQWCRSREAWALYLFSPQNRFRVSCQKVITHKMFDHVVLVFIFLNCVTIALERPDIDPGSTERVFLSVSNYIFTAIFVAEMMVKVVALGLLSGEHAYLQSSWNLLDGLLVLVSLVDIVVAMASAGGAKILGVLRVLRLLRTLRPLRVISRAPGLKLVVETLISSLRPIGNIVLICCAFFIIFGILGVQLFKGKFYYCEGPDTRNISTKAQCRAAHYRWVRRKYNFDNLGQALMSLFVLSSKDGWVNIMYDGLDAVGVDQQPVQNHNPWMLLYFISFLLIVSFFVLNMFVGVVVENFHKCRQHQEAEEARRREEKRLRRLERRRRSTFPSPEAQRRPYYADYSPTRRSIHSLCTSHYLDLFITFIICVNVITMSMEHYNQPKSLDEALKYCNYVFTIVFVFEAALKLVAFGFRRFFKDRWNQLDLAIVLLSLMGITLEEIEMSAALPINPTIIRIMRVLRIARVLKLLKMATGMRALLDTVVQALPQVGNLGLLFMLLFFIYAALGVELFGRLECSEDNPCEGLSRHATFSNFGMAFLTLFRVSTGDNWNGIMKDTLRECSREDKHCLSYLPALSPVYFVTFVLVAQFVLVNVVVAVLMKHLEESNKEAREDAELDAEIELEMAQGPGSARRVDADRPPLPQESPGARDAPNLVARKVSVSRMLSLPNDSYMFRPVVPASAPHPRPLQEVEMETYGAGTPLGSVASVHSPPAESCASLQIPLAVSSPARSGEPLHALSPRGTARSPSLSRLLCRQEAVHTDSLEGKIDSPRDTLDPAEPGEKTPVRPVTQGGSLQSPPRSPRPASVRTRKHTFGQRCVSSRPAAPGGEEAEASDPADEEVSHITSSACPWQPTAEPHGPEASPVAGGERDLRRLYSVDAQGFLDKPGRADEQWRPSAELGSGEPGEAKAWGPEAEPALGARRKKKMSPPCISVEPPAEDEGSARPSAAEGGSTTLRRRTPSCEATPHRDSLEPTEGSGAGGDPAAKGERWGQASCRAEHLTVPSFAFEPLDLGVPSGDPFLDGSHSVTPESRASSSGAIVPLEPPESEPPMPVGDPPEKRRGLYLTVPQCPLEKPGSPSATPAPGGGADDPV
# [3] = reduction of Shn3 3'UTR-driven luciferase in osteoblasts – cell-based, Clone20 osteoblasts, firefly luciferase, cherry-picked, dose response (AID 624132); assay type: functional;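 also: firefly luciferase luminescence from reporter carrying the Shn3 3'UTR in osteoblasts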
# [4] = loss of viability in HepG2 cells – cell-based, CellTiter-Glo, cherry-picked, cytotoxicity control for Shn3 inhibitor project, dose response (AID 624134); assay type: functional
# [5] = non-specific 3'UTR reporter inhibition in Clone20-Shn3RL – cell-based, Renilla luciferase, cherry-picked, counter-screen for Shn3 inhibitor project, dose response (AID 624133); assay type: functional
# [6] = molecular target: T1, Carboxy-terminal domain RNA polymerase II polypeptide A small phosphatase 1 (Homo sapiens, UniProt Q9GZU7); assay: CTDSP1 inhibitors, concentration-response, biochemical, absorbance readout, ultra-high-throughput screen actives (AID 540297); assay type: functional
# T1 sequence (Q9GZU7 whole entry): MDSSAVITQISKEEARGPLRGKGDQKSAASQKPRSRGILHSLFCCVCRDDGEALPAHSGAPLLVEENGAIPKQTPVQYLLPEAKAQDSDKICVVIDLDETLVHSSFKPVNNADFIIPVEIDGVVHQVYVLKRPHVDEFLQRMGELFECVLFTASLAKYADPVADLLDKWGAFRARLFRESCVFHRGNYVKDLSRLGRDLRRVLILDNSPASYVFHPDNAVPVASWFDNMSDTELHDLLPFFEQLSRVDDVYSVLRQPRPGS
# [7] = molecular target: T2, Corticotropin-releasing factor receptor 2/Corticotropin-releasing factor-binding protein (Homo sapiens, UniProt P24387+Q13324); assay: activators of CRF receptor 2 with binding protein – uHTS hits, confirmation (AID 602473); assay type: functional; conditions: read-out: EC50_Mean
# T2 sequence (Q13324 whole entry): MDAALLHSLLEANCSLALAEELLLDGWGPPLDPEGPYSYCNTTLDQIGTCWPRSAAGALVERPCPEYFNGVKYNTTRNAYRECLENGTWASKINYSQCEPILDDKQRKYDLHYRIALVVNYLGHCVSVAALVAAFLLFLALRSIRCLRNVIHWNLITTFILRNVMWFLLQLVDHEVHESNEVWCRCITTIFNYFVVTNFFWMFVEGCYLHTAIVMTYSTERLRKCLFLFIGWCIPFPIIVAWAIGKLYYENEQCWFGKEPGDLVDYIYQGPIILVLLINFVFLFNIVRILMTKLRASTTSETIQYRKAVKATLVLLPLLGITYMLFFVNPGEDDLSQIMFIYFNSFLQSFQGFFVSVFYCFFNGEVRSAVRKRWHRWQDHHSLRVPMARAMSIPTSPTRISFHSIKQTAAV
# T2 sequence (P24387 whole entry): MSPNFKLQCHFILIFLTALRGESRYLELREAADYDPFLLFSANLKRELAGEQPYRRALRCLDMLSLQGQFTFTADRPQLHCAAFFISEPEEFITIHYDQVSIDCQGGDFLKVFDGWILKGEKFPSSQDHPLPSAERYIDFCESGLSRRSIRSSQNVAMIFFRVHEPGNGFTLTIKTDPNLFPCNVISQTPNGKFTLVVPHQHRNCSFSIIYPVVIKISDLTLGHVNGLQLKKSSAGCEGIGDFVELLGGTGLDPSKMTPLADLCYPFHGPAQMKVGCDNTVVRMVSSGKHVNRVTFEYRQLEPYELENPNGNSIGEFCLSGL
# Protein skinhead-1 = molecular target: T3, Protein skinhead-1 (Caenorhabditis elegans, UniProt P34707); assay type: functional
# T3 sequence (P34707 whole entry): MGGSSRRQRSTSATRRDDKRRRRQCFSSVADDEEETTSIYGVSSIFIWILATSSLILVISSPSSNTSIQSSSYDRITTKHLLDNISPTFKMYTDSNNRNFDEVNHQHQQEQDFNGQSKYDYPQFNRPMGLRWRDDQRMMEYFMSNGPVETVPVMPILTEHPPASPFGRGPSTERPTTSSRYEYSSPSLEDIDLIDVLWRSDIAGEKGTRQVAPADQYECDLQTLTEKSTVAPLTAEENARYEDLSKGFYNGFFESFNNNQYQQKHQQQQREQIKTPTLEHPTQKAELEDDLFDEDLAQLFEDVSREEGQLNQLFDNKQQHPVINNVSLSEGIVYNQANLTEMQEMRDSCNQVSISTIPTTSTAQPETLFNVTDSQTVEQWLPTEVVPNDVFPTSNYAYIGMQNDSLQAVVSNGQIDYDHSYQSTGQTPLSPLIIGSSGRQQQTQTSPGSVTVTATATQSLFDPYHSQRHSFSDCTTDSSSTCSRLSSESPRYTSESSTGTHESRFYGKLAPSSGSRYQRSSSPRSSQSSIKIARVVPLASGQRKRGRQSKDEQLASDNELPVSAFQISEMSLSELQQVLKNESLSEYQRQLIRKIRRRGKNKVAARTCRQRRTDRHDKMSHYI
# [8] = Luminescence Cell-Based Dose Retest to Confirm Inhibitors of Cancer Stem Cells. [Related pubchem assays (depositor defined):AID2717, AID2721]; assay type: functional; conditions: Homo sapiens
# [9] = intracellular Trypanosoma cruzi inhibitors in host cells – cell-based, plate reader, cherry-pick samples, set 3, dose response (AID 651818); assay type: functional;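 also: compounds incubated with infected cells for about four days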
# [10] = molecular target: T4, Heat shock factor protein 1 (Mus musculus, UniProt P38532); assay: enhancement of HSF1-driven luciferase signal – cell-based, NIH3T3, luminescence, dose retest, confirmation (AID 435004); assay type: functional;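 also: stress induced by proteasome inhibitor MG132 added 30 min after compound; luciferase reporter driven by HSF1 response element in NIH3T3 cells; actives raise luminescence as potentiators of the MG132 stress response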
# T4 sequence (P38532 whole entry): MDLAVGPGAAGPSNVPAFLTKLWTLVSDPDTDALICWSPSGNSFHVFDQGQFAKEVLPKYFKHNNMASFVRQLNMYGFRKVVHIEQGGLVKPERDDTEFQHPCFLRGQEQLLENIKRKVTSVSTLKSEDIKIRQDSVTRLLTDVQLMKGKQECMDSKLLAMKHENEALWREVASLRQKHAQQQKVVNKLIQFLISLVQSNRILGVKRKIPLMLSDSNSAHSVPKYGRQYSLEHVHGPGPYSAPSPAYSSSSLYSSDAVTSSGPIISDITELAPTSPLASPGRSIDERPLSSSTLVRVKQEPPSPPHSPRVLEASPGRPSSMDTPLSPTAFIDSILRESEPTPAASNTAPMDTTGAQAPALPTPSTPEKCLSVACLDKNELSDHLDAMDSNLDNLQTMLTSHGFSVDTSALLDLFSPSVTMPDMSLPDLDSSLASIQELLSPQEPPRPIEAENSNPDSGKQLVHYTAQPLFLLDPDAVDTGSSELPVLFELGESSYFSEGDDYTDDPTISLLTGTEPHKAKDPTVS
# [11] = molecular target: T5, Replicative DNA helicase DnaB (Mycobacterium tuberculosis, UniProt P9WMR3); assay: DnaB intein splicing inhibitors, dose response, biochemical, cell-free fluorescence (AID 449749); assay type: functional
# T5 sequence (P9WMR3 whole entry): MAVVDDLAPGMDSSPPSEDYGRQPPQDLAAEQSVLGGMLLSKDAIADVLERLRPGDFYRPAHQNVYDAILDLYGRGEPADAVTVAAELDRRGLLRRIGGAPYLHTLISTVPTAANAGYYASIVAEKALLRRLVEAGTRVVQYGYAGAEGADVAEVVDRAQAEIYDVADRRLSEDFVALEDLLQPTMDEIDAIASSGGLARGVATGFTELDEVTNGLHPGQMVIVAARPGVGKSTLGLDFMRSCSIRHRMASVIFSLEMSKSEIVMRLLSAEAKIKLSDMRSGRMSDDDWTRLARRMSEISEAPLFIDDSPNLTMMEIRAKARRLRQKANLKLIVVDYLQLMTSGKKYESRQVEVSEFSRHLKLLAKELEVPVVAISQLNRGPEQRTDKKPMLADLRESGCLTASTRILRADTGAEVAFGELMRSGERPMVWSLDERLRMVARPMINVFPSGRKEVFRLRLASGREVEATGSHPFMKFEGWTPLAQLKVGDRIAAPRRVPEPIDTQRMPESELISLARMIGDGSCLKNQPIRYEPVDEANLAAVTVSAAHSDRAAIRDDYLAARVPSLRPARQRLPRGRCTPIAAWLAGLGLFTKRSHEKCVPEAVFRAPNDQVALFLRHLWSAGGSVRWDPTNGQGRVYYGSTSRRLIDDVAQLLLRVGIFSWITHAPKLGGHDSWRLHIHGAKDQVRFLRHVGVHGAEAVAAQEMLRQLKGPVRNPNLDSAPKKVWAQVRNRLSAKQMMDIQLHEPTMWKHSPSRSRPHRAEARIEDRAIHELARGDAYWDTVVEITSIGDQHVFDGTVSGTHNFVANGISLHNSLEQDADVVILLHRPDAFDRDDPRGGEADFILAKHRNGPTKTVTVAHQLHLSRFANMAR
# Protein RecA = molecular target: T6, Protein RecA (Mycobacterium tuberculosis, UniProt P9WHJ3); assay: Fluorescence Cell-Free Homogeneous Dose Retest to Identify Inhibitors of RecA-Intein Splicing Activity. [Related pubchem assays (depositor defined):AID2097, AID2223, AID489010, AID492950]; assay type: functional
# T6 sequence (P9WHJ3 whole entry): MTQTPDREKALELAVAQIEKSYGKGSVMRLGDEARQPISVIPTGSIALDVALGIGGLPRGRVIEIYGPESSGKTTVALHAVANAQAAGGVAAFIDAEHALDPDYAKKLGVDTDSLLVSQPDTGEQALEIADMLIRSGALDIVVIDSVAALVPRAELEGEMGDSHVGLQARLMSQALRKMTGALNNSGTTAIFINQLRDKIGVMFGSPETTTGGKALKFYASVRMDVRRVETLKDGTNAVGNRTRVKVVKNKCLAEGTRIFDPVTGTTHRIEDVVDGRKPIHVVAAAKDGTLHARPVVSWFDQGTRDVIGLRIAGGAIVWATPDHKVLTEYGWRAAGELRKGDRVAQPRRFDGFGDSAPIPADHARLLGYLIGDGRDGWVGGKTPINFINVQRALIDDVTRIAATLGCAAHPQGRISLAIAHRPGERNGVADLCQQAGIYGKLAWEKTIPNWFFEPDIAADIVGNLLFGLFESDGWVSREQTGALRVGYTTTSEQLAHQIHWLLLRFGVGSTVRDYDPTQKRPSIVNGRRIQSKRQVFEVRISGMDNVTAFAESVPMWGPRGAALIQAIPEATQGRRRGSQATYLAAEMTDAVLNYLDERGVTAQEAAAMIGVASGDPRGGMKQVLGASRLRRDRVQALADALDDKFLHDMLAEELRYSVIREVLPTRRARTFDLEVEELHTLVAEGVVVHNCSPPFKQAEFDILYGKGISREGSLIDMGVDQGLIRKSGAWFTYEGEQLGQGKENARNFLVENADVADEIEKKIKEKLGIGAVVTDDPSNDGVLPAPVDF
# Paired box protein Pax-8 = Paired box protein Pax-8 (Homo sapiens, UniProt Q06710); assay: PAX8 transcriptional activity inhibition in RMG-I – RMG-I cells, luciferase, cherry-pick, dose response (AID 687027); assay type: functional, cell-based;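 also: luciferase reporter driven by Pax8 target thyroperoxidase promoter measured by SteadyGlo luminescence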
# Chain of Paired box protein Pax-8 (Q06710 whole entry): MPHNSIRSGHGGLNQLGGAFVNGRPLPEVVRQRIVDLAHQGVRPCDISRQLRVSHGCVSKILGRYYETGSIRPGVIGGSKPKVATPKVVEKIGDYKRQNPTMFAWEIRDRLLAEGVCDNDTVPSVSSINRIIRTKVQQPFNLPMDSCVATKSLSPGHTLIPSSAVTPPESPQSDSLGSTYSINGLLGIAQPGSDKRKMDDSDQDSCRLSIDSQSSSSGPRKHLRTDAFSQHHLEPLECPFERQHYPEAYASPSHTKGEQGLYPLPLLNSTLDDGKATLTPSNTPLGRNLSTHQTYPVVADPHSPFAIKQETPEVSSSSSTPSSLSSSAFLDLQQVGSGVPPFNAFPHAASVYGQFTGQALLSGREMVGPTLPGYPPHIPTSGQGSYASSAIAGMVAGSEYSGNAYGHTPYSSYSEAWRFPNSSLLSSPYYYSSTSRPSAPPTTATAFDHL
smiles,measurement,setting,value
COc1ccc(S(=O)(=O)NC2CC3CCC2C3)cc1Cl (centres undefined),AC50,[1],3.41 µM (active)
CCCn1c(NCc2c[nH]c3ccccc23)nc2ccccc21,EC50,[2],5.89 µM (active)
COc1ccc([C@H]2CC(=O)C=C(c3ccc(F)cc3OCc3ccccc3)C2)cc1OC,AC50,[3],7.36 µM (active)
same,AC50,[4],> 70 µM (inactive)
same,AC50,[5],16.1 µM (active)
CC1CCCN(C(=O)CSCC(=O)Nc2nc(-c3cccs3)cs2)C1 (centres undefined),EC50,[2],4.52 µM (active)
CCN(CC)P(=O)(c1n(CC)cc[n+]1CC)N(CC)CC,IC50,[6],3.98 µM (active)
O=C(Nc1ccc(S(=O)(=O)Nc2nccs2)cc1)c1ccc(O)nc1,IC50,[6],7.11 µM (active)
O=C(NCc1ccc2c(c1)OCO2)C1CC(c2ccc(Cl)cc2)=NO1 (centres undefined),EC50,[2],0.496 µM (active)
CC(C)CCC(C(=O)NC(C)c1ccccc1)C(=O)NC(C)c1ccccc1 (centres undefined),IC50,[6],11.7 µM (active)
CCN(CC)C(=S)Sc1c(-c2ccccc2)c2cc(Cl)ccc2[nH]c1=O,EC50,[7],> 53 µM (inactive)
same,IC50,Protein skinhead-1,> 100 µM (inactive)
Cc1c(CN2CCCC(C(=O)Nc3cccc(-n4cccn4)c3)C2)cnn1C (centres undefined),IC50,Protein skinhead-1,> 100 µM (inactive)
COc1ccc(-c2sc3ccccc3c2/C=C/c2ccncc2)cc1,AC50,[8],4.57 µM (active)
same,AC50,[1],3.9 µM (active)
C[C@H](CO)N1C[C@H](C)[C@@H](CN(C)Cc2ccc(-c3ccccc3)cc2)Oc2ccc(NS(=O)(=O)c3ccccc3)cc2C1=O,AC50,[9],4.49 µM (active)
COc1cc(/C=C2\SC(=S)N(Nc3ncc(C(F)(F)F)cc3Cl)C2=O)ccc1O,EC50,[10],36 µM (active)
same,AC50,[1],12.4 µM (active)
O=C(CCNC(=O)c1ccccc1)NN=Cc1ccc(Br)o1,IC50,[6],10.2 µM (active)
C[C@H]1CN([C@@H](C)CO)C(=O)c2cccc(NC(=O)c3nc4ccccc4s3)c2O[C@@H]1CN(C)Cc1ccc(-c2ccccc2)cc1,AC50,[9],1.22 µM (active)
C[C@@H]1CCCCO[C@H](CN(C)Cc2ccc(C(F)(F)F)cc2)[C@@H](C)CN([C@H](C)CO)C(=O)c2cc(NC(=O)Nc3cccc4ccccc34)ccc2O1,AC50,[9],2.91 µM (active)
COc1ccc(NC(=O)C2CCCN2S(=O)(=O)c2ccc3c(c2)CCC(=O)N3)cc1 (centres undefined),EC50,[2],9.23 µM (active)
Cc1nc(SCC(=O)NCc2ccc3c(c2)OCO3)c(C#N)c2c1CCCC2,EC50,[2],5.41 µM (active)
COc1ccc(NC(=O)N(C)C[C@H]2Oc3c(NS(=O)(=O)c4ccc(F)cc4)cccc3C(=O)N([C@@H](C)CO)C[C@H]2C)cc1,AC50,[9],4.14 µM (active)
Cc1[nH]c2ccccc2c1NC(=O)CN1CCN(c2cccc(C(F)(F)F)c2)CC1,EC50,[2],4.61 µM (active)
CC1=NN(c2cccc([N+](=O)[O-])c2)C(=O)C1,AC50,[11],14.4 µM (active)
same,EC50,Protein RecA,19.5 µM (active)
same,AC50,[4],> 70 µM (inactive)
same,AC50,[5],29.5 µM (active)
CC(=O)c1cccc(-c2csc3ncnc(Sc4nnnn4C)c23)c1,AC50,[3],4.72 µM (active)
same,AC50,[4],53.4 µM (active)
same,AC50,[5],15.5 µM (active)
same,AC50,Paired box protein Pax-8,3.1 µM (active)
CCC1Sc2ccccc2N(CC(=O)NCCC2=CCCCC2)C1=O (centres undefined),EC50,[2],4.76 µM (active)
